Reference: paper PMC12469672, “Effects on Oral Squamous Carcinoma Cell Lines and Their Mechanisms of Pyrazole N-Aryl Sulfonate: A Novel Class of Selective Cyclooxygenase-2 Inhibitors” (International Journal of Molecular Sciences, 2025)
Entries after “also recorded” stand apart in the source; their conditions may differ. Where two headings read alike, the source gives them in different places.

How the values were obtained:
SAS cells [1] = test: Transwell migration assay, SAS; assay type: cell-based; conditions: 24 h treatment at working concentrations, vs control
Method: Following 24 h drug treatment at the predefined working concentrations, CAL-27 and SAS cells (5 × 10^5 cells/mL in serum-free medium) were seeded in Transwell upper chambers (200 μL/well, 1 × 10^5 cells) with 700 μL complete medium containing 10% FBS in lower chambers. After 36 h of incubation (37 °C, 5% CO2), the cells from the upper surface of the membrane were wiped off using a cotton swab, whereupon migrated cells were fixed (4% paraformaldehyde [P0099-100 mL, Beyotime, Haimen, China], 4 °C, 4 h), stained (0.1% crystal violet [C0121-100 mL, Beyotime, China], 30 min), and quantified by counting five random fields under a microscope (CX23, Olympus, Tokyo, Japan) using ImageJ (v1.8.0.322), with triplicate wells per condition.

COX-2 mRNA in SAS cells = test: RT-qPCR COX-2 mRNA, SAS; assay type: cell-based; conditions: working concentrations, 24 h, vs control
Method: (§1) Equal amounts of RNA were reverse transcribed into cDNA using the Reverse Transcription Kit (AG11705, Accurate Biology, Guangzhou, China) following the manufacturer’s instructions. Quantitative PCR was performed on a QIAGEN Rotor-GeneQ system (9001862, QIAGEN, Hilden, Germany) with SYBR Green Pro Taq HS Premix II (AG11702, Accurate Biology, China).
(§2) The PCR protocol consisted of initial denaturation at 95 °C for 30 s, followed by 40 cycles of 95 °C for 5 s and 60 °C for 30 s. All reactions were performed in triplicate, with melting curve analysis confirming amplification specificity. The expression of the target genes was normalized to GAPDH, and fold changes were calculated in the manner of the 2^−ΔΔCT .

[2] = test system: MMP9 mRNA in CAL-27 cells; test: RT-qPCR MMP9 mRNA, CAL-27; assay type: cell-based; conditions: CAL-27, 24 h, vs control
Method: as §1, §2

CAL-27 cells [3] = test: Hoechst 33342 staining, CAL-27; assay type: cell-based; conditions: CAL-27, 24 h, working concentrations, vs NC
Method: (§3) After 24 h drug treatment at the predefined working concentrations, CAL-27 and SAS cells were dyed with 300 μL Hoechst 33342 staining (C1022, Beyotime, China) in the dark at 37 °C for 10 min. Then, the residual Hoechst 33342 staining was washed 3 times with 1 × phosphate-buffered saline (PBS, G4250-500ML, Servicebio, China). The images were then immediately examined under an inverted fluorescence microscope (CX23, Olympus, Japan).

HepG2 = conditions: previous experiments, preliminary screening; cited from earlier work
[4] = test system: MMP2 mRNA in CAL-27 cells; test: RT-qPCR MMP2 mRNA, CAL-27; assay type: cell-based; conditions: CAL-27, 24 h, vs control
Method: as §1, §2

SAS cells [5] = test: CCK-8 proliferation assay, SAS; assay type: cell-based; conditions: for IC50: SAS; for Selectivity Index SAS: SI = IC50,VERO/IC50,SAS
Method: (§4) The OSCC cell lines CAL-27 (STCC12901P, Servicebio, Wuhan, China) and SAS (CC0706, Cellcook, Guangzhou, China) were cultured in Dulbecco Modified Eagle Medium F12 (DMEM/F12) (G4610-500ML, Servicebio, Wuhan, China) supplemented with 10% fetal bovine serum (FBS) (AB-FBS-DIA1050, ABW, Shanghai, China) and 100 U/mL penicillin-streptomycin-gentamicin solution (G4014-100ML, Servicebio, Wuhan, China). VERO cells were cultured in DMEM (G4524-500ML, Servicebio, Wuhan, China) supplemented with 10% FBS (AB-FBS-DIA1050, ABW, China) and 100 U/mL penicillin–streptomycin–gentamicin solution (G4014-100ML, Servicebio, Wuhan, China). […] were maintained at 37 °C in a humidified 5% CO2 incubator. For experiments, 1 × 10^6 cells were seeded per T-25 culture flask.
(§5) CAL-27, SAS, and VERO cells were seeded in 96-well plates at a density of 5000 cells per well. At specified time intervals, 10 μL of Cell Counting Kit-8 (CCK-8) reagent (K1018, Apexbio, Boston, MA, USA) was added to each well and incubated for 2 h. Absorbance at 450 nm was measured using a microplate reader (Infinite M200 Pro, Tecan Group, Männedorf, Switzerland).

CAL-27 cells [6] = test: Annexin V-FITC/PI flow cytometry apoptosis, CAL-27; assay type: cell-based; conditions: CAL-27, 24 h, vs control
Method: (§6) After 24 h drug treatment at the predefined working concentrations, CAL-27 and SAS cells were trypsinized, centrifuged (200× g, 5 min, RT), and washed twice with 1 mL ice-cold PBS. Cell aliquots ((5–10) × 10^4 cells) were resuspended in 195 μL Annexin V-FITC binding buffer, followed by sequential addition of 5 μL Annexin V-FITC and 10 μL propidium iodide (PI) (BMS500FI-100, Thermo Fisher Scientific, Wien, Austria) with gentle mixing. After 10–20 min of incubation in darkness (20–25 °C) with intermittent resuspension (2–3 times), samples were placed on ice and analyzed within 1 h using a flow cytometer (CytExpert software [Version 2.4.0.28, Beckman Coulter, Brea, CA, USA]). Triplicate independent experiments were performed for statistical analysis.

MMP2 mRNA in SAS cells = test: RT-qPCR MMP2 mRNA, SAS; assay type: cell-based; conditions: vs control
Method: as §1, §2

SAS cells [7] = test: Annexin V-FITC/PI flow cytometry apoptosis, SAS; assay type: cell-based; conditions: 24 h, vs control
Method: as §6

SAS cells [8] = test: Hoechst 33342 staining, SAS; assay type: cell-based; conditions: 24 h, working concentrations, vs NC
Method: as §3

VERO cells = test: CCK-8 cytotoxicity assay, VERO; assay type: cell-based, African green monkey; conditions: for IC50: Chlorocebus sabaeus, VERO, CCK-8, 24 h; for proliferation rate of VERO cells / cytotoxicity in VERO cells: working concentrations; for proliferation rate of VERO cells: 24 h, vs control; for cytotoxicity in VERO cells: vs CXB
Method: as §4, §5

[9] = test system: BCL2 mRNA in CAL-27 cells; test: RT-qPCR BCL2 mRNA, CAL-27; assay type: cell-based; conditions: CAL-27, 24 h, vs control (NC)
Method: as §1, §2

[10] = test system: CYP19A1 mRNA in CAL-27 cells; test: RT-qPCR CYP19A1 mRNA, CAL-27; assay type: cell-based; conditions: CAL-27, vs control
Method: as §1, §2

[11] = CCK-8, 24 h, given as a range, read-out: IC50 (range)

Structure (SMILES)	migratory capacity (Transwell) (SAS cells [1])	COX-2 mRNA level (COX-2 mRNA in SAS cells)	MMP9 mRNA expression [2]	apoptotic cells (Hoechst 33342, fluorescence microscopy) (CAL-27 cells [3])	antiproliferative effect on HepG2 (HepG2)	apoptosis of HepG2 (HepG2)	migration of HepG2 (HepG2)	MMP2 mRNA expression [4]	IC50 (SAS cells [5]; [11])	IC50 (SAS cells [5]; CCK-8, read-out: IC50 SAS)	Selectivity Index SAS (SAS cells [5])	total apoptotic cell population (early and late apoptosis) (CAL-27 cells [6])	MMP2 mRNA expression (MMP2 mRNA in SAS cells)	total apoptotic cell population (early and late apoptosis) (SAS cells [7])	apoptotic cells (Hoechst 33342, fluorescence microscopy) (SAS cells [8])	IC50 (VERO cells)	proliferation rate of VERO cells (VERO cells)	cytotoxicity in VERO cells (VERO cells)	BCL2 mRNA level [9]	CYP19A1 mRNA expression [10]
Cc1cc(-c2ccco2)nn1S(=O)(=O)Oc1ccccc1Cl [Compound 5f]	significantly reduced	significantly downregulated	significantly downregulated	significant increase	concentration-dependent antiproliferative effects	induction of apoptosis	suppression of migration	significantly downregulated	59.4 to 69.5 µM	64.2 µM	3.50	significantly higher	no statistically significant suppression	significantly higher; also recorded: optimal efficacy	significant increase	225 µM	moderate inhibitory effect	lower cytotoxicity than CXB	upregulated	slightly influenced the expression, although not significantly
Cc1ccc(-c2cc(C)n(S(=O)(=O)Oc3ccc(I)cc3)n2)cc1 [Compound 4b]	significantly reduced	significantly downregulated	significantly downregulated	significant increase	concentration-dependent antiproliferative effects	induction of apoptosis	suppression of migration	significantly downregulated	26 to 34.6 µM	30.2 µM	3.40	significantly higher; also recorded: strongest pro-apoptotic effect	markedly suppressed	significantly higher	significant increase	102 µM	remained largely unchanged	lower cytotoxicity than CXB	significantly downregulated	significantly downregulated
Cc1ccc(-c2cc(C)n(S(=O)(=O)Oc3ccccc3Cl)n2)cc1 [Compound 4d]	significantly reduced	marked upregulation	significantly downregulated	significant increase	concentration-dependent antiproliferative effects	induction of apoptosis	suppression of migration	significantly downregulated	7.46 to 24.3 µM	16.7 µM	>6.00	significantly higher	markedly suppressed	significantly higher	significant increase	> 100 µM	remained largely unchanged	lower cytotoxicity than CXB	significantly downregulated	significantly downregulated
